Test results taken from PubChem BioAssay AID220 (DTP/NCI, 2004).
Values joined by “and” are separate entries in the source; they are usually repeats but may differ in a detail not shown here. Equal values may be shown once. Records with an inconclusive call do not appear.

Tested on: CD8F1 mice, subcutaneous mammary adenocarcinoma, T/C%
Test: NCI In Vivo Anticancer Drug Screen. Data for tumor model Mammary Adenocarcinoma CD8F1 (subcutaneous) in CD8F1
Details: higher = larger tumour
In short: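 Mice carrying transplanted tumors received test compound, and survival or tumor size was recorded. Each value is the treated-group measurement divided by the corresponding measurement in vehicle-dosed controls.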

For `O=C[C@@H](CO)O[C@H](C=O)n1cnc2c(=O)[nH]cnc21`, the T/C (endpoint: mean tumor weight, dose: 12.5 mg/kg/injection, schedule: Q07DX004 (ip), vehicle: saline with Tween-80) was 119 % of control, the T/C (endpoint: mean tumor weight, dose: 25.0 mg/kg/injection, schedule: Q07DX004 (ip), vehicle: saline with Tween-80) was 98 % of control and the T/C (endpoint: mean tumor weight, dose: 50.0 mg/kg/injection, schedule: Q07DX004 (ip), vehicle: saline with Tween-80) was 76 % of control. For the same molecule, the T/C (endpoint: mean tumor weight, dose: 100.0 mg/kg/injection, schedule: Q07DX004 (ip), vehicle: saline with Tween-80) was 78 % of control, the T/C (endpoint: mean tumor weight, dose: 200.0 mg/kg/injection, schedule: Q07DX004 (ip), vehicle: saline with Tween-80) was 100 % of control and the T/C (endpoint: mean tumor weight, dose: 400.0 mg/kg/injection, schedule: Q07DX004 (ip), vehicle: saline with Tween-80) was 67 % of control. For the same molecule, the T/C (endpoint: median tumor weight (est.), dose: 12.5 mg/kg/injection, schedule: Q07DX005 (ip), vehicle: saline with Tween-80) was 95 % of control, the T/C (endpoint: median tumor weight (est.), dose: 25.0 mg/kg/injection, schedule: Q07DX005 (ip), vehicle: saline with Tween-80) was 116 % of control and the T/C (endpoint: median tumor weight (est.), dose: 50.0 mg/kg/injection, schedule: Q07DX005 (ip), vehicle: saline with Tween-80) was 118 % of control. The T/C (endpoint: median tumor weight (est.), dose: 100.0 mg/kg/injection, schedule: Q07DX005 (ip), vehicle: saline with Tween-80) was 113 % of control, the T/C (endpoint: median tumor weight (est.), dose: 200.0 mg/kg/injection, schedule: Q07DX005 (ip), vehicle: saline with Tween-80) was 84 % of control and the T/C (endpoint: median tumor weight (est.), dose: 400.0 mg/kg/injection, schedule: Q07DX005 (ip), vehicle: saline with Tween-80) was 82 % of control.

In the case of `CC(C)NC(=O)OCc1c(COC(=O)NC(C)C)c(-c2ccc(Cl)c(Cl)c2)n2c1CCC2`, the T/C (endpoint: median tumor weight (est.), dose: 12.5 mg/kg/injection, schedule: Q07DX005 (ip), vehicle: distilled water + Tween-80) is reported as 67 % of control, the T/C (endpoint: median tumor weight (est.), dose: 25.0 mg/kg/injection, schedule: Q07DX005 (ip), vehicle: distilled water + Tween-80) is reported as 120 % of control and the T/C (endpoint: median tumor weight (est.), dose: 50.0 mg/kg/injection, schedule: Q07DX005 (ip), vehicle: distilled water + Tween-80) is reported as 21 % of control. The T/C (endpoint: median tumor weight (est.), dose: 100.0 mg/kg/injection, schedule: Q07DX005 (ip), vehicle: distilled water + Tween-80) was 6 % of control.

For `C1OCN2CSCC12` (stereo not given), the T/C (endpoint: median tumor weight change, dose: 125.0 mg/kg/injection, schedule: Q01DX001 (ip), vehicle: saline with Tween-80) was 90 % of control, the T/C (endpoint: median tumor weight change, dose: 250.0 mg/kg/injection, schedule: Q01DX001 (ip), vehicle: saline with Tween-80) was 71 % of control and the T/C (endpoint: median tumor weight change, dose: 500.0 mg/kg/injection, schedule: Q01DX001 (ip), vehicle: saline with Tween-80) was 82 % of control.

In the case of `O=C1C(=O)c2cccnc2-c2ncccc21`, the T/C (endpoint: median tumor weight change, dose: 1.56 mg/kg/injection, schedule: Q01DX001 (ip), vehicle: Klucel (hydroxypropylcellulose) (HPC)) is reported as 107 % of control and the T/C (endpoint: median tumor weight change, dose: 3.12 mg/kg/injection, schedule: Q01DX001 (ip), vehicle: Klucel (hydroxypropylcellulose) (HPC)) is reported as 117 % of control.

In the case of `COc1c(C=O)c2c(c(OC)c1OC)-c1ccc(OC)c(=O)cc1[C@@H](NC(C)=O)CC2`, the T/C (endpoint: median tumor weight change, dose: 8.0 mg/kg/injection, schedule: Q01DX001 (ip), vehicle: Klucel (hydroxypropylcellulose) (HPC)) is reported as 76 % of control, the T/C (endpoint: median tumor weight change, dose: 15.62 mg/kg/injection, schedule: Q01DX001 (ip), vehicle: Klucel (hydroxypropylcellulose) (HPC)) is reported as 93 % of control and the T/C (endpoint: median tumor weight change, dose: 16.0 mg/kg/injection, schedule: Q01DX001 (ip), vehicle: Klucel (hydroxypropylcellulose) (HPC)) is reported as 88 % of control. For the same molecule, the T/C (endpoint: median tumor weight change, dose: 31.0 mg/kg/injection, schedule: Q01DX001 (ip), vehicle: Klucel (hydroxypropylcellulose) (HPC)) was 54 % of control, the T/C (endpoint: median tumor weight change, dose: 31.25 mg/kg/injection, schedule: Q01DX001 (ip), vehicle: Klucel (hydroxypropylcellulose) (HPC)) was 69 % of control and the T/C (endpoint: median tumor weight change, dose: 62.0 mg/kg/injection, schedule: Q01DX001 (ip), vehicle: Klucel (hydroxypropylcellulose) (HPC)) was 17 % of control. For the same molecule, the T/C (endpoint: median tumor weight change, dose: 62.5 mg/kg/injection, schedule: Q01DX001 (ip), vehicle: Klucel (hydroxypropylcellulose) (HPC)) was 7 % of control.

For `NC1=NC(=O)N2CC12` (stereo not given), the T/C (endpoint: median tumor weight change, dose: 125.0 mg/kg/injection, schedule: Q01DX001 (ip), vehicle: saline) was 115 % of control and the T/C (endpoint: median tumor weight change, dose: 250.0 mg/kg/injection, schedule: Q01DX001 (ip), vehicle: saline) was 122 % of control.

In the case of `Nc1ncnc2nc[nH]c12`, the T/C (endpoint: median tumor weight (est.), dose: 64.0 mg/kg/injection, schedule: Q07DX005 (ip), vehicle: Klucel (hydroxypropylcellulose) (HPC)) is reported as 75 % of control and 77 % of control and 78 % of control and the T/C (endpoint: median tumor weight (est.), dose: 512.0 mg/kg/injection, schedule: Q07DX005 (ip), vehicle: Klucel (hydroxypropylcellulose) (HPC)) is reported as 17 % of control and 31 % of control.

With `CCCNC1=C(C)C(=O)C2=C(C1=O)[C@H](COC(N)=O)[C@]1(OC)[C@@H]3N[C@@H]3CN21` the T/C (endpoint: median tumor weight change, dose: 3.75 mg/kg/injection, schedule: Q01DX001 (ip), vehicle: saline) was 7 % of control, the T/C (endpoint: median tumor weight change, dose: 7.5 mg/kg/injection, schedule: Q01DX001 (ip), vehicle: saline) was 13 % of control and the T/C (endpoint: median tumor weight change, dose: 15.0 mg/kg/injection, schedule: Q01DX001 (ip), vehicle: saline) was -66 % of control.
